The experiment addresses Tyrosine-protein kinase Fgr (Homo sapiens) (UniProt P09769). As to the kind of experiment: inhibitors of human FGR tyrosine kinase activity – biochemical, Z'-LYTE, FRET readout, direct format, dose response (AID 1671277). To be noted: recombinant FGR.

Tyrosine-protein kinase Fgr (Homo sapiens), sequence (P09769 whole entry, looked up): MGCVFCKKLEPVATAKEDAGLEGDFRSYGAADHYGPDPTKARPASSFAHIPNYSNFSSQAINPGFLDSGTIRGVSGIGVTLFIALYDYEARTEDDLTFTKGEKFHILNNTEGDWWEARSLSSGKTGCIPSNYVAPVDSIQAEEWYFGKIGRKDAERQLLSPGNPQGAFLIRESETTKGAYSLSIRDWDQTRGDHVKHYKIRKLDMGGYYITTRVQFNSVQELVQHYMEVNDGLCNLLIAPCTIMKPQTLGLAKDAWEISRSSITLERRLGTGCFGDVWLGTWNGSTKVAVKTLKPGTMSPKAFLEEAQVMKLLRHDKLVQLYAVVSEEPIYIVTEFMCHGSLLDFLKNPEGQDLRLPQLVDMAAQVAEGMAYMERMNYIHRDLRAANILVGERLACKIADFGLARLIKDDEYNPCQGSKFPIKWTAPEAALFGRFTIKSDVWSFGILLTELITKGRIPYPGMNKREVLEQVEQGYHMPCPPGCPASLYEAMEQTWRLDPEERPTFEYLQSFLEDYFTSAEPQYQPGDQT

As for `COc1cc2ncnc(Nc3cccc(Cl)c3)c2cc1OC`, the IC50 was 0.919 µM.

Values taken from PubChem BioAssay AID1671277.
